The source of these data is patent US20220298107A1, “SUBSTITUTED UREA DIHYDROOROTATE DEHYDROGENASE INHIBITORS” (Janssen Biotech, Inc., priority 2019, published 2022).

For one experiment, the system named is MOLM-13 cells. The experiment can be described thus: MOLM-13 Cellular Assay. It is filed as cell-based. The following applies: Homo sapiens, MOLM-13, 72 h, read-out: MOLM-13 Cellular Assay EC50 (nM). The procedure:
MOLM-13 cells were obtained from DSMZ and were maintained in RPMI 1640+Glutamax+25 mM HEPES (Invitrogen, catalog number 72400) supplemented with 10% heat inactivated fetal bovine serum (FBS; Invitrogen, catalog number 16140). The day prior to assay set-up, cells were pelleted, resuspended in fresh media, counted, and cells were plated at 0.4×10^6 cell/mL in a T150 flask. On the day of the assay, cells were pelleted, resuspend in fresh media, counted and seeded at 5,000 cells/well in white opaque 96-well tissue culture treated microplates (Perkin Elmer, catalog number 6005680). Cells were exposed to different concentrations of test compounds at 37° C., 5% CO2 for 72 hours immediately after seeding. Cell viability was acquired on a Perkin Elmer Envision 2104 multilabel reader using the CellTiter-Glo assay (Promega) according to the manufacturer's instructions.

For a further experiment, the target named is human DHODH (Homo sapiens, UniProt Q02127). The experiment can be described thus: biochemical. The protocol:
To detect DHODH enzyme activities, dichloroindophenol (DCIP) is added as the final electron acceptor in the assay. DCIP can accept electrons from the reduced coenzyme Q generated in the assay, or from dihydroorotate (DHO) via flavin mononucleotide (FMN) by binding presumably to the ubiquinone pocket. […] The assay buffer contained […], pH 7.5, 150 mM NaCl, 0.5 mM EDTA, and 0.1% Triton X-100 in MilliQ water. Substrate consisting of 20 mM DHO, 5 mM CoQ6, and 1 mM DCIP in assay buffer, initiates the reaction. […] Absorbance measurements were obtained using the BMG Phera Star plate-reading spectrophotomer. Purified human DHODH was purchased from Proteros (cat. No. PR-0044). Chemicals were purchased from Sigma-Aldrich, Teknova, and Avanti Polar Lipids. Liquid handling was performed using Labcyte Echo and Formulatrix Tempest.

Chain of human DHODH (Q02127 whole entry): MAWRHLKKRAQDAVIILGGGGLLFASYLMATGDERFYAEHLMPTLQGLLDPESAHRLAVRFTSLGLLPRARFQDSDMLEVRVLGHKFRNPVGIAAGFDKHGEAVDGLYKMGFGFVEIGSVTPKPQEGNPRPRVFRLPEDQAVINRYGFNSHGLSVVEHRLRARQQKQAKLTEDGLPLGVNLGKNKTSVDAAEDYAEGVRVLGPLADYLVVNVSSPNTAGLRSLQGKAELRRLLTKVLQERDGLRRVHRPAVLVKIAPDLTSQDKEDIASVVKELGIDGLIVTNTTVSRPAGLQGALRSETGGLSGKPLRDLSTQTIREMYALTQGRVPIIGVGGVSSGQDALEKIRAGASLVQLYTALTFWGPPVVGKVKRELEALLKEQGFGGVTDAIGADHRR

By EC50 is commonly meant the concentration giving half of the maximal effect. As to `CC(C)NC(=O)Nc1cc(O[C@@H](C)C(F)(F)F)c(C(=O)Nc2c(F)cccc2Cl)cc1F` [Example 9, (S)-N-(2-Chloro-6-fluorophenyl)-5-fluoro-4-(3-isopropylureido)-2-((1,1,1-trifluoropropan-2-yl)oxy)benzamide], the EC50 with MOLM-13 cells stood at 89 nM; at human DHODH it was 490 nM.

In the case of `CCCN(CC)C(=O)Nc1cc(O[C@@H](C)C(F)(F)F)c(C(=O)Nc2c(F)cccc2Cl)cc1F` [Example 15, (S)-N-(2-Chloro-6-fluorophenyl)-4-(3-ethyl-3-propylureido)-5-fluoro-2-((1,1,1-trifluoropropan-2-yl)oxy)benzamide], the EC50 at human DHODH came out at 20 nM.

Turning to `C[C@H](Oc1cc(NC(=O)N2CCC(CO)C2)c(F)cc1C(=O)Nc1c(F)cccc1Cl)C(F)(F)F` (stereo partly drawn) [Example 13, N-(4-((2-Chloro-6-fluorophenyl)carbamoyl)-2-fluoro-5-(((S)-1,1,1-trifluoropropan-2-yl)oxy)phenyl)-3-(hydroxymethyl)pyrrolidine-1-carboxamide], the EC50 was determined as 220 nM in the experiment on MOLM-13 cells and 950 nM on human DHODH.

For the compound `C[C@H](Oc1cc(NC(=O)N2CC(CF)C2)c(F)cc1C(=O)Nc1c(F)cccc1Cl)C(F)(F)F` [Example 25, (S)-N-(4-((2-Chloro-6-fluorophenyl)carbamoyl)-2-fluoro-5-((1,1,1-trifluoropropan-2-yl)oxy)phenyl)-3-(fluoromethyl)azetidine-1-carboxamide], the figures for the EC50 with MOLM-13 cells and at human DHODH were 110 nM and 210 nM, respectively.

`CCN(CCOC)C(=O)Nc1cc(O[C@@H](C)C(F)(F)F)c(C(=O)Nc2c(F)cccc2Cl)cc1F` [Example 6, (S)-N-(2-Chloro-6-fluorophenyl)-4-(3-ethyl-3-(2-methoxyethyl)ureido)-5-fluoro-2-((1,1,1-trifluoropropan-2-yl)oxy)benzamide]: the EC50 was found to be 1.2 nM in the experiment with MOLM-13 cells and 3.6 nM on human DHODH.

In the case of `C[C@H](Oc1cc(NC(=O)N2CC(F)C2)c(F)cc1C(=O)Nc1c(F)cccc1Cl)C(F)(F)F` [Example 22, (S)-N-(4-((2-Chloro-6-fluorophenyl)carbamoyl)-2-fluoro-5-((1,1,1-trifluoropropan-2-yl)oxy)phenyl)-3-fluoroazetidine-1-carboxamide], it took 7.2 nM to reach a half-maximal effect at human DHODH (EC50).

On to `Cc1n[nH]c(Cl)c1NC(=O)c1cc(F)c(NC(=O)N2CCC[C@@H]2CO)cc1O[C@@H](C)C(F)(F)F` [Example 37, (R)-N-(4-((5-Chloro-3-methyl-1H-pyrazol-4-yl)carbamoyl)-2-fluoro-5-(((S)-1,1,1-trifluoropropan-2-yl)oxy)phenyl)-2-(hydroxymethyl)pyrrolidine-1-carboxamide], for which the EC50 in the experiment on MOLM-13 cells turned out to be 11 nM; at human DHODH, 0.7 nM.

As for `COc1ncc(C)c(NC(=O)c2cc(F)c(NC(=O)N3CCC[C@@H]3CO)cc2O[C@@H](C)C(F)(F)F)c1C` [Example 40, (R)-N-(2-Fluoro-4-((2-methoxy-3,5-dimethylpyridin-4-yl)carbamoyl)-5-(((S)-1,1,1-trifluoropropan-2-yl)oxy)phenyl)-2-(hydroxymethyl)pyrrolidine-1-carboxamide], the EC50 with MOLM-13 cells is 25 nM; on human DHODH, 3.6 nM.

`CCN(CC(F)F)C(=O)Nc1cc(O[C@@H](C)C(F)(F)F)c(C(=O)Nc2c(C)n[nH]c2Cl)cc1F` [Example 42, (S)-N-(5-Chloro-3-methyl-1H-pyrazol-4-yl)-4-(3-(2,2-difluoroethyl)-3-ethylureido)-5-fluoro-2-((1,1,1-trifluoropropan-2-yl)oxy)benzamide]: the EC50 in the experiment with MOLM-13 cells amounted to 11 nM; at human DHODH, 3 nM.

For `COc1nccc(C)c1NC(=O)c1cc(F)c(NC(=O)N2CCC[C@@H]2CO)cc1O[C@@H](C)C(F)(F)F` [Example 38, (R)-N-(2-Fluoro-4-((2-methoxy-4-methylpyridin-3-yl)carbamoyl)-5-(((S)-1,1,1-trifluoropropan-2-yl)oxy)phenyl)-2-(hydroxymethyl)pyrrolidine-1-carboxamide], the EC50 was 16 nM with MOLM-13 cells and 0.17 nM at human DHODH.

Take `C[C@H](Oc1cc(NC(=O)N2CCC2)c(F)cc1C(=O)Nc1c(F)cccc1Cl)C(F)(F)F` [Example 20, (S)-N-(4-((2-Chloro-6-fluorophenyl)carbamoyl)-2-fluoro-5-((1,1,1-trifluoropropan-2-yl)oxy)phenyl)azetidine-1-carboxamide]: the EC50 on human DHODH amounted to 2.8 nM.

As to `CCN(CC(F)F)C(=O)Nc1cc(O[C@@H](C)C(F)(F)F)c(C(=O)Nc2c(C)cnc(OC)c2C)cc1F` [Example 45, (S)-4-(3-(2,2-Difluoroethyl)-3-ethylureido)-5-fluoro-N-(2-methoxy-3,5-dimethylpyridin-4-yl)-2-((1,1,1-trifluoropropan-2-yl)oxy)benzamide], the EC50 in the experiment with MOLM-13 cells is 63 nM; on human DHODH, 27 nM.

`C[C@H](Oc1cc(NC(=O)N(C)CCC#N)c(F)cc1C(=O)Nc1c(F)cccc1Cl)C(F)(F)F` [Example 17, (S)-N-(2-Chloro-6-fluorophenyl)-4-(3-(2-cyanoethyl)-3-methylureido)-5-fluoro-2-((1,1,1-trifluoropropan-2-yl)oxy)benzamide] registered an EC50 on human DHODH of 200 nM.

Turning to `CCN(CCO)C(=O)Nc1cc(O[C@@H](C)C(F)(F)F)c(C(=O)Nc2c(F)cccc2Cl)cc1F` [Example 3, (S)-N-(2-Chloro-6-fluorophenyl)-4-(3-ethyl-3-(2-hydroxyethyl)ureido)-5-fluoro-2-((1,1,1-trifluoropropan-2-yl)oxy)benzamide], in the experiment on MOLM-13 cells, the EC50 stood at 1.2 nM.

For `CCN(CC(F)F)C(=O)Nc1cc(O[C@@H](C)C(F)(F)F)c(C(=O)Nc2c(C)cnc(OC)c2Cl)cc1F` [Example 44, (S)-N-(3-Chloro-2-methoxy-5-methylpyridin-4-yl)-4-(3-(2,2-difluoroethyl)-3-ethylureido)-5-fluoro-2-((1,1,1-trifluoropropan-2-yl)oxy)benzamide], the concentration for a half-maximal effect (EC50) stood at 9.6 nM with MOLM-13 cells and 7 nM at human DHODH.

For `C[C@H](Oc1cc(NC(=O)N(C)CC#N)c(F)cc1C(=O)Nc1c(F)cccc1Cl)C(F)(F)F` [Example 26, (S)-N-(2-Chloro-6-fluorophenyl)-4-(3-(cyanomethyl)-3-methylureido)-5-fluoro-2-((1,1,1-trifluoropropan-2-yl)oxy)benzamide], the EC50 worked out at 170 nM with MOLM-13 cells and 7970 nM at human DHODH.

As for `C[C@H](Oc1cc(NC(=O)N(C)CCO)c(F)cc1C(=O)Nc1c(F)cccc1Cl)C(F)(F)F` [Example 18, (S)-N-(2-Chloro-6-fluorophenyl)-5-fluoro-4-(3-(2-hydroxyethyl)-3-methylureido)-2-((1,1,1-trifluoropropan-2-yl)oxy)benzamide], the EC50 was determined as 1.5 nM with MOLM-13 cells and 2.6 nM on human DHODH.

As to `C[C@H](Oc1cc(NC(=O)N2CC(O)C2)c(F)cc1C(=O)Nc1c(F)cccc1Cl)C(F)(F)F` [Example 23, (S)-N-(4-((2-Chloro-6-fluorophenyl)carbamoyl)-2-fluoro-5-((1,1,1-trifluoropropan-2-yl)oxy)phenyl)-3-hydroxyazetidine-1-carboxamide], the values for the EC50 in the experiment on MOLM-13 cells and at human DHODH were 270 nM and 540 nM, respectively.

On human DHODH, `CCCN(C)C(=O)Nc1cc(O[C@@H](C)C(F)(F)F)c(C(=O)Nc2c(F)cccc2Cl)cc1F` [Example 14, (S)-N-(2-Chloro-6-fluorophenyl)-5-fluoro-4-(3-methyl-3-propylureido)-2-((1,1,1-trifluoropropan-2-yl)oxy)benzamide] showed an EC50 of 7.9 nM.

For the compound `CCN(CC(F)F)C(=O)Nc1cc(O[C@@H](C)C(F)(F)F)c(C(=O)Nc2c(C)ccnc2OC)cc1F` [Example 43, (S)-4-(3-(2,2-difluoroethyl)-3-ethylureido)-5-fluoro-N-(2-methoxy-4-methylpyridin-3-yl)-2-((1,1,1-trifluoropropan-2-yl)oxy)benzamide], the 50% effective concentration (EC50) came out at 30 nM in the experiment with MOLM-13 cells and 24 nM on human DHODH.

For the compound `C[C@H](Oc1cc(NC(=O)N2CCC(F)C2)c(F)cc1C(=O)Nc1c(F)cccc1Cl)C(F)(F)F` (stereo partly drawn) [Example 32, N-(4-((2-Chloro-6-fluorophenyl)carbamoyl)-2-fluoro-5-(((S)-1,1,1-trifluoropropan-2-yl)oxy)phenyl)-3-fluoropyrrolidine-1-carboxamide], the results for the EC50 with MOLM-13 cells and on human DHODH were 5.8 nM and 13 nM, respectively.

Compound `C[C@H](Oc1cc(NC(=O)N(C)CCF)c(F)cc1C(=O)Nc1c(F)cccc1Cl)C(F)(F)F` [Example 16, (S)-N-(2-chloro-6-fluorophenyl)-5-fluoro-4-(3-(2-fluoroethyl)-3-methylureido)-2-((1,1,1-trifluoropropan-2-yl)oxy)benzamide] had an EC50 at human DHODH of 4.7 nM.

For the compound `CCN(CC(F)F)C(=O)Nc1cc(O[C@@H](C)C(F)(F)F)c(C(=O)Nc2c(F)cccc2Cl)cc1F` [Example 7, (S)-N-(2-chloro-6-fluorophenyl)-4-(3-(2,2-difluoroethyl)-3-ethylureido)-5-fluoro-2-((1,1,1-trifluoropropan-2-yl)oxy)benzamide], the EC50 in the experiment with MOLM-13 cells is 1.9 nM.
